The source of these data is patent publication US20210063414A1, “METHODS FOR PREVENTING AND/OR TREATING BONE LOSS CONDITIONS BY MODULATING IRISIN” (Dana-Farber Cancer Institute, Inc., priority 2018, published 2021).

“Also recorded” adds a separate entry of the source. Counter-ions that a name gives are not always drawn.

One assay deals with sclerostin. The assay is described as follows: Irisin injection in mice: sclerostin mRNA in osteocyte-enriched bones and plasma sclerostin protein (ELISA). The format is in vivo. The settings on record: co-injection of 1 mg/kg inhibitor with irisin. How it is done: 8 weeks old mice were injected daily with indicated dose of irisin for 6 days. […] were collected and treated with collagenase to yield osteocyte-enriched bones. Sclerostin mRNA level from osteocyte-enriched tibia was analyzed by qPCR (FIG. 7A). Cyclophilin was used as a house-keeping gene. Plasma was collected to analyze the circulating sclerostin protein level by ELISA assay (FIG. 7B). Data are represented as mean±SEM. For FIG. 7A and FIG. 7B, n=5 animals/group. * indicates p<0.05, and *** indicates p<0.001.
Certain materials and methods were used to generate the results described herein. For example, the data shown in FIG. 1A resulted from MLO-Y4 (an osteocyte-like cell line) cells treated with the indicated concentration of irisin and hydrogen peroxide for 4 hours. Cells were stained with Hoechst 33342 (ThermoFisher Scientific, catalog number H3570) and Eth-D1 (ThermoFisher Scientific, catalog number E1169) and analyzed to determine the percentage of cell death using ImageJ. […] Co-precipitated irisin was analyzed by immunoblot analysis against flag tag (Sigma Aldrich, catalog number A8592). The data shown in FIGS. 5A and 5B were generated from MLO-Y4 cells treated and analyzed as in the experiments used to generate the data shown in FIG. 2D, except that pre-treatment of 100 nM RGDS (FIG. 5A) or echistatin (R & D Systems Inc., catalog number 3202/100U) (FIG. 5B) for 10 minutes was performed before irisin treatment. […] RNAs were extracted from the cells and the sclerostin mRNA level was analyzed by qPCR (FIG. 6A) or treated and analyzed as in (FIG. 6A), except that pre-treatment of 10 μM RGDS, RGDyK (Selleck, catalog number S7844), or echistatin was performed for 10 minutes before irisin treatment. […] Sclerostin mRNA level was analyzed by qPCR (FIG. 7A). […] Epididymal fats were collected, RNAs were extracted from the tissues, and mRNA levels of the indicated genes were analyzed by qPCR. […]
(In general: An ELISA detects its analyte on a solid surface through an enzyme-linked reagent.)

The next assay has as its system MLO-Y4 cells. The experiment in a line: Integrin-like signaling (pFAK, pZyxin, pAKT, pCREB) in MLO-Y4 cells, immunoblot. The format is cell-based. The settings on record: for effect of integrin inhibitor on irisin-induced signaling (phosphorylation of FAK, Zyxin, CREB): MLO-Y4, inhibitor pre-treatment 10 minutes before irisin. As for the experimental part: Integrin heterodimer binds to its ligand. The interaction results in phosphorylation of FAK and Zyxin, followed by phosphorylation of AKT (at T308) and CREB. PM is plasma membrane. FIG. 2C and FIG. 2D show the immunoblots. MLO-Y4 cells were seeded and incubated until 60% cell density. The cells were incubated with serum free medium (FreeStyle™ 293 medium) for 4 hours and were treated for indicated time with 10 nM norepinephrine or irisin (FIG. 2C) or indicated concentrations of irisin for 10 minutes (FIG. 2D). Cells were lysed to detect the indicated protein level using immunoblot analysis.
(§1) Certain materials and methods were used to generate the results described herein. For example, the data shown in FIG. 1A resulted from MLO-Y4 (an osteocyte-like cell line) cells treated with the indicated concentration of irisin and hydrogen peroxide for 4 hours. Cells were stained with Hoechst 33342 (ThermoFisher Scientific, catalog number H3570) and Eth-D1 (ThermoFisher Scientific, catalog number E1169) and analyzed to determine the percentage of cell death using ImageJ. The data shown in FIG. 2D resulted from MLO-Y4 incubated in serum free medium (FreeStyle™ 293 expression medium, ThermoFisher Scientific, catalog number 12338018) for 4 hours followed by treatment of indicated concentrations of irisin for 10 minutes. Cells were lysed to detect the indicated protein level using immunoblot analysis (Cell Signaling Technology, catalog numbers 3283S, 3285S, 8467S, 3553S, 9198S, and 9104S; Abcam, catalog number ab49900-100ul). The data shown in FIG. 3 resulted from 3T3-F442A cells incubated in serum free medium for 4 hours followed by treatment of indicated concentrations of irisin for 10 minutes. Cells were lysed by RIPA buffer to detect the indicated protein level using immunoblot analysis. The data shown in FIG. 4 were generated from 100 nM flag-tagged irisin (Enzo life sciences, catalog number ADI-908-307-3010) incubated with 5 nM of the indicated 6 his-tag integrins (R & D Systems Inc., catalog numbers 7064-AB-025, 5668-A4-050, 5438-A9-050, 6357-AB-050, and 6579-AV-025) in the presence of RGDS peptide (R & D Systems Inc., catalog number 3498/10) or its control peptide (Enzo Life Sciences, catalog Number BML-P701-0005) followed by immunoprecipitation using 6 his-tag beads (ThermoFisher Scientific, catalog number R901-01). Co-precipitated irisin was analyzed by immunoblot analysis against flag tag (Sigma Aldrich, catalog number A8592). The data shown in FIGS. 5A and 5B were generated from MLO-Y4 cells treated and analyzed as in the experiments used to generate the data shown in FIG. 2D, except that pre-treatment of 100 nM RGDS (FIG. 5A) or echistatin (R & D Systems Inc., catalog number 3202/100U) (FIG. 5B) for 10 minutes was performed before irisin treatment. The data shown in FIGS. 6A and 6B were generated from MLO-Y4 cells incubated in serum free medium for 3 hours followed by treatment of indicated time of 10 nM irisin for 16 hours. RNAs were extracted from the cells and the sclerostin mRNA level was analyzed by qPCR (FIG. 6A) or treated and analyzed as in (FIG. 6A), except that pre-treatment of 10 μM RGDS, RGDyK (Selleck, catalog number S7844), or echistatin was performed for 10 minutes before irisin treatment. The data shown in FIGS. 7A and 7B were generated from 8 week-old mice injected with the indicated dose of irisin for 6 days. Tibias were collected and treated with collagenase to obtain mRNA from the osteocyte-enriched bones. Sclerostin mRNA level was analyzed by qPCR (FIG. 7A). Serum was collected to analyze the sclerostin protein level using ELISA kit (R&D Systems Inc., catalog number MSST00) (FIG. 7B). The data shown in FIG. 8 were generated from 8 week-old mice injected with the indicated dose of irisin for 6 days. Epididymal fats were collected, RNAs were extracted from the tissues, and mRNA levels of the indicated genes were analyzed by qPCR. […]
On the technique in general: A western blot detects proteins with antibodies after separation by electrophoresis.

Assay [1] has as its system sclerostin mRNA in MLO-Y4 cells. The assay is described as follows: Sclerostin mRNA in MLO-Y4 cells, qRT-PCR. The format is cell-based, mouse. The settings on record: MLO-Y4, inhibitor pre-treatment 10 minutes, irisin 16 hours. As for the experimental part: Cells were stained with Hoechst 33342 and Eth-D1, and analyzed to determine the percentage of cell death. *: p<0.05, ***: p<0.001 vs 0.3 mM H2O2 treated condition. […] MLO-Y4 cells were seeded and incubated until 60% cell density. The cells were incubated with Freestyle293 medium for 4 hours and were treated with indicated concentrations of irisin for 16 hours. Sclerostin mRNA level was analyzed by qRT-PCR. Cyclophilin was used as a control house-keeping gene.
MLO-Y4 cells were incubated in serum free medium for 3 hours followed by treatment of indicated concentrations of irisin for indicated time (FIG. 6A), or followed by treatment of 0 or 10 nM irisin in the presence of indicated integrin inhibitors or their control peptide for 16 hours (FIG. 6B). Sclerostin mRNA level was analyzed by qPCR.
as §1, with “The data shown in FIGS. 7A and 7B were generated from 8 week-old mice injected with the indicated dose of irisin for 6 days. Tibias were collected and treated with collagenase to obtain mRNA from the osteocyte-enriched bones.” left out, “7A).” for “7A). Serum was collected to analyze the sclerostin protein level using ELISA kit (R&D Systems Inc., catalog number MSST00) (FIG. 7B). The data shown in FIG. 8 were generated from 8 week-old mice injected with the indicated dose of irisin for 6 days. Epididymal fats were collected, RNAs were extracted from the tissues, and mRNA levels of the indicated genes were analyzed by qPCR.”
For orientation: In qPCR the cycle at which signal appears reflects the starting amount.

Take `CNc1cccc(CCOc2ccc3c(c2)CN(CC(F)(F)F)C(=O)[C@H](CC(=O)O)C3)n1` [SB273005, reference compound]: the “effect on irisin-induced gene expression of sclerostin in osteocyte-enriched bones” value with sclerostin was “significantly prevented”. The “effect of integrin inhibitor on irisin-induced signaling (phosphorylation of FAK, Zyxin, CREB)” value in the assay with MLO-Y4 cells is “block irisin-induced signaling”.
Take `NC[C@H](O)c1ccc(O)c(O)c1` [norepinephrine, L-(−)-Norephinephrine (+)-bitartrate salt monohyrdate]: the “phosphorylation of CREB (positive control)” value with MLO-Y4 cells (MLO-Y4, 10 nM) was “also did this”.
Turning to “echistatin: natural integrin inhibitor isolated from viper venom, affects primarily integrin αV complexes (QCESGPCCRNCKFLKEGTICKRARGDDMDDYCNGKTCDCPRNPHKGPAT)”, the “effect of integrin inhibitor on irisin-induced sclerostin mRNA” value in assay [1] is on record as “sensitive; also recorded: prevented sclerostin induction”. Further, the “effect of integrin inhibitor on irisin-induced signaling (phosphorylation of FAK, Zyxin, CREB)” value in the assay on MLO-Y4 cells was “most irisin signaling in osteocytes was inhibited”; in the assay with MLO-Y4 cells (listed as Echistatin) it was “effectively prevented irisin signaling”.
